From patent US6737383B1, “Herbicidal oxadiazolidines” (priority 1999, dated 2004)

Legend:
[1] = tested on: corn; experiment: Test B pre/postemergence corn; type: in vivo, Zea mays; conditions: for Plant response rating, Corn: Postemergence; for Corn plant response rating: scale of 0 to 10 where 0 is no effect and 10 is complete control
In short: (§1)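 Response is a visual 0-to-10 score relative to untreated plants, where 0 means no effect and 10 means complete control, taken twelve to sixteen days after application. Treatments went onto soil at planting and onto foliage of 1- to 4-leaf plants, using a surfactant-containing non-phytotoxic solvent.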

[2] = tested on: velvetleaf; experiment: Test B pre/postemergence velvetleaf; type: in vivo, Abutilon theophrasti; conditions: for Plant response rating, Velvetleaf: Postemergence; for Velvetleaf plant response rating: scale of 0 to 10 where 0 is no effect and 10 is complete control
In short: as §1

[3] = tested on: bedstraw; experiment: Test B pre/postemergence bedstraw; type: in vivo, Galium aparine; conditions: for Plant response rating, Bedstraw: Postemergence
In short: as §1

[4] = tested on: cocklebur; experiment: Test B pre/postemergence cocklebur; type: in vivo, Xanthium strumarium; conditions: for Plant response rating, Cocklebur: Postemergence; for Cocklebur plant response rating: scale of 0 to 10 where 0 is no effect and 10 is complete control
In short: as §1

[5] = tested on: morningglory; experiment: Test B pre/postemergence morningglory; type: in vivo, Ipomoea hederacea; conditions: for Plant response rating, Morningglory: Postemergence; for Morningglory plant response rating: scale of 0 to 10 where 0 is no effect and 10 is complete control
In short: as §1

[6] = tested on: rape; experiment: Test B pre/postemergence rape; type: in vivo, Brassica napus; conditions: for Plant response rating, Rape: Postemergence; for Rape plant response rating: scale of 0 to 10 where 0 is no effect and 10 is complete control
In short: as §1

[7] = tested on: duck salad; experiment: Test B flood test duck salad; type: in vivo, Heteranthera limosa; conditions: Pre-emergence
In short: (§2)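 Plants were grown to the 2-leaf stage before treatment with test chemical, then held in a greenhouse for twelve to sixteen days. Injury was visually rated against untreated controls on a 0–10 scale, where 0 is no effect and 10 is complete control.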

[8] = tested on: surinam grass; experiment: Test B pre/postemergence surinam grass; type: in vivo, Brachiaria decumbens; conditions: for Plant response rating, B. signalgrass: Postemergence
In short: as §1

[9] = tested on: giant foxtail; experiment: Test B pre/postemergence giant foxtail; type: in vivo, Setaria faberii; conditions: for Plant response rating, Giant foxtail: Postemergence; for Giant foxtail plant response rating: Preemergence, scale of 0 to 10 where 0 is no effect and 10 is complete control
In short: as §1

[10] = tested on: pigweed; experiment: Test B pre/postemergence pigweed; type: in vivo, Amaranthus retroflexus; conditions: for Plant response rating, Redroot pigweed: Postemergence; for Redroot pigweed plant response rating: scale of 0 to 10 where 0 is no effect and 10 is complete control
In short: as §1

[11] = tested on: wheat; experiment: Test B pre/postemergence wheat; type: in vivo, Triticum aestivum; conditions: for Plant response rating, Wheat: Postemergence; for Wheat plant response rating: scale of 0 to 10 where 0 is no effect and 10 is complete control
In short: as §1

[12] = tested on: wild oat; experiment: Test B pre/postemergence wild oat; type: in vivo, Avena fatua; conditions: for Plant response rating, Wild oats: Postemergence; for Wild oats plant response rating: scale of 0 to 10 where 0 is no effect and 10 is complete control
In short: as §1

[13] = tested on: crabgrass; experiment: Test B pre/postemergence crabgrass; type: in vivo, Digitaria sanguinalis; conditions: for Plant response rating, Crabgrass: Postemergence; for Crabgrass plant response rating: scale of 0 to 10 where 0 is no effect and 10 is complete control
In short: as §1

[14] = tested on: soybean; experiment: Test B pre/postemergence soybean; type: in vivo, Glycine max; conditions: for Plant response rating, Soybean: Postemergence; for Soybean plant response rating: scale of 0 to 10 where 0 is no effect and 10 is complete control
In short: as §1

[15] = tested on: bamyardgrass; experiment: Test B flood test barnyardgrass; type: in vivo, Echinochloa crus-galli; conditions: Pre-emergence
In short: as §2

[16] = tested on: sugar beet; experiment: Test B pre/postemergence sugar beet; type: in vivo, Beta vulgaris; conditions: for Plant response rating, Sugarbeets: Postemergence; for Sugarbeets plant response rating: scale of 0 to 10 where 0 is no effect and 10 is complete control
In short: as §1

[17] = tested on: purple nutsedge; experiment: Test B pre/postemergence purple nutsedge; type: in vivo, Cyperus rotundus; conditions: for Plant response rating, Nutsedge: Postemergence; for Nutsedge plant response rating: scale of 0 to 10 where 0 is no effect and 10 is complete control
In short: as §1

[18] = tested on: rice; experiment: Test B flood test rice; type: in vivo, Oryza sativa; conditions: Pre-emergence
In short: as §2

[19] = tested on: blackgrass; experiment: Test B pre/postemergence blackgrass; type: in vivo, Alopecurus myosuroides; conditions: for Plant response rating, Blackgrass: Postemergence
In short: as §1

[20] = tested on: smallflower flatsedge; experiment: Test B flood test smallflower flatsedge; type: in vivo, Cyperus difformis; conditions: Pre-emergence
In short: as §2

[21] = Rate 125 g/ha, scale 0 to 10, 0 is no effect, 10 is complete control
[22] = Rate 500 g/ha, scale 0 to 10, 0 no effect, 10 complete control
[23] = Preemergence, Rate 500 g/ha, scale of 0 to 10 where 0 is no effect and 10 is complete control
[24] = Rate 1000 g/ha, scale 0 to 10 (0 no effect, 10 complete control)
[25] = Rate 125 g/ha, flood test species, scale 0 to 10 where 0 is no effect and 10 is complete control
[26] = Rate 250 g/ha, flood-test species, scale 0 to 10, 0 is no effect, 10 is complete control
[27] = Rate 500 g/ha, flood test species, scale 0 to 10 (0 no effect, 10 complete control)
[28] = Preemergence, Rate 250 g/ha, scale of 0 to 10 where 0 is no effect and 10 is complete control
[29] = Rate 250 g/ha, scale of 0 to 10 where 0 is no effect and 10 is complete control

CCOC(=O)C(C)N(C(=O)n1oc(=O)n(-c2c(C)cccc2OC)c1=O)c1ccc(F)cc1 (centres unmarked) [Compound 331]
0: Plant response rating, Corn [1, 21] | Corn plant response rating (0 to 10 scale) ([1]; Preemergence, Rate 125 g/ha) | Corn plant response rating ([1]; Preemergence, Rate 250 g/ha) | Corn plant response rating ([1]; Preemergence, Rate 500 g/ha) | Plant response rating, Corn [1, 22] | Plant response rating, Velvetleaf [2, 21] | Velvetleaf plant response rating (0 to 10 scale) ([2]; Preemergence, Rate 125 g/ha) | Velvetleaf plant response rating ([2]; Preemergence, Rate 250 g/ha) | Velvetleaf plant response rating ([2]; Preemergence, Rate 500 g/ha) | Plant response rating, Velvetleaf [2, 22] | Plant response rating, Bedstraw [3, 21] | Bedstraw plant response rating [3, 23] | Plant response rating, Bedstraw [3, 22] | Plant response rating, Cocklebur [4, 21] | Cocklebur plant response rating (0 to 10 scale) ([4]; Preemergence, Rate 125 g/ha) | Cocklebur plant response rating ([4]; Preemergence, Rate 250 g/ha) | Cocklebur plant response rating ([4]; Preemergence, Rate 500 g/ha) | Plant response rating, Cocklebur [4, 22] | Plant response rating, Morningglory [5, 21] | Morningglory plant response rating (0 to 10 scale) ([5]; Preemergence, Rate 125 g/ha) | Morningglory plant response rating ([5]; Preemergence, Rate 250 g/ha) | Morningglory plant response rating ([5]; Preemergence, Rate 500 g/ha) | Plant response rating, Morningglory [5, 22] | Plant response rating, Rape [6, 21] | Rape plant response rating (0 to 10 scale) ([6]; Preemergence, Rate 125 g/ha) | Rape plant response rating ([6]; Preemergence, Rate 250 g/ha) | Rape plant response rating ([6]; Preemergence, Rate 500 g/ha) | Plant response rating, Rape [6, 22] | Ducksalad plant response rating [7, 24] | Ducksalad plant response rating [7, 25] | Ducksalad plant response rating [7, 26] | Ducksalad plant response rating [7, 27] | Plant response rating, B. signalgrass [8, 21] | B. signalgrass plant response rating (0 to 10 scale, 0 is no effect, 10 is complete control) ([8]; Preemergence, Rate 125 g/ha) | B. signalgrass plant response rating [8, 28] | B. signalgrass plant response rating [8, 23] | Plant response rating, B. signalgrass [8, 29] | Plant response rating, B. signalgrass [8, 22] | Plant response rating, Giant foxtail [9, 21] | Giant foxtail plant response rating ([9]; Rate 250 g/ha) | Giant foxtail plant response rating ([9]; Rate 500 g/ha) | Plant response rating, Giant foxtail [9, 22] | Plant response rating, Redroot pigweed [10, 21] | Redroot pigweed plant response rating (0 to 10 scale) ([10]; Preemergence, Rate 125 g/ha) | Redroot pigweed plant response rating ([10]; Preemergence, Rate 250 g/ha) | Redroot pigweed plant response rating ([10]; Preemergence, Rate 500 g/ha) | Plant response rating, Redroot pigweed [10, 22] | Plant response rating, Wheat [11, 21] | Wheat plant response rating (0 to 10 scale) ([11]; Preemergence, Rate 125 g/ha) | Wheat plant response rating ([11]; Preemergence, Rate 250 g/ha) | Wheat plant response rating ([11]; Preemergence, Rate 500 g/ha) | Plant response rating, Wheat [11, 22] | Plant response rating, Wild oats [12, 21] | Wild oats plant response rating (0 to 10 scale) ([12]; Preemergence, Rate 125 g/ha) | Wild oats plant response rating ([12]; Preemergence, Rate 250 g/ha) | Wild oats plant response rating ([12]; Preemergence, Rate 500 g/ha) | Plant response rating, Wild oats [12, 22] | Plant response rating, Crabgrass [13, 21] | Crabgrass plant response rating (0 to 10 scale) ([13]; Preemergence, Rate 125 g/ha) | Crabgrass plant response rating ([13]; Preemergence, Rate 250 g/ha) | Crabgrass plant response rating ([13]; Preemergence, Rate 500 g/ha) | Plant response rating, Crabgrass [13, 22] | Plant response rating, Soybean [14, 21] | Soybean plant response rating (0 to 10 scale) ([14]; Preemergence, Rate 125 g/ha) | Soybean plant response rating ([14]; Preemergence, Rate 250 g/ha) | Soybean plant response rating ([14]; Preemergence, Rate 500 g/ha) | Plant response rating, Soybean [14, 22] | Barnyardgrass plant response rating [15, 24] | Barnyardgrass plant response rating [15, 25] | Barnyardgrass plant response rating [15, 26] | Barnyardgrass plant response rating [15, 27] | Plant response rating, Sugarbeets [16, 21] | Sugarbeets plant response rating (0 to 10 scale) ([16]; Preemergence, Rate 125 g/ha) | Sugarbeets plant response rating ([16]; Preemergence, Rate 250 g/ha) | Sugarbeets plant response rating ([16]; Preemergence, Rate 500 g/ha) | Plant response rating, Sugarbeets [16, 22] | Plant response rating, Nutsedge [17, 21] | Nutsedge plant response rating (0 to 10 scale) ([17]; Preemergence, Rate 125 g/ha) | Nutsedge plant response rating ([17]; Preemergence, Rate 250 g/ha) | Nutsedge plant response rating ([17]; Preemergence, Rate 500 g/ha) | Plant response rating, Nutsedge [17, 22] | Rice plant response rating [18, 24] | Rice plant response rating [18, 25] | Rice plant response rating [18, 26] | Rice plant response rating [18, 27] | Plant response rating, Blackgrass [19, 21] | Blackgrass plant response rating (0 to 10 scale) ([19]; Preemergence, Rate 125 g/ha) | Blackgrass plant response rating [19, 28] | Blackgrass plant response rating [19, 23] | Plant response rating, Blackgrass [19, 29] | Plant response rating, Blackgrass [19, 22] | S. Flatsedge plant response rating [20, 24] | S. Flatsedge plant response rating [20, 25] | S. Flatsedge plant response rating [20, 26] | S. Flatsedge plant response rating [20, 27]
